Measured values taken from ChEMBL document CHEMBL5375989, “Pioneering 4,11-Dioxo-4,11-dihydro-1H-anthra[2,3-d]imidazol-3-ium Compounds as Promising Survivin Inhibitors by Targeting ILF3/NF110 for Cancer Therapy” (J Med Chem, 2023).
Activity calls are given as the source filed them. The rule behind the calls is not given here.

Experiments:
A549 [1] = assay: Induction of autophagy in human A549 cells assessed as formation of GFP-LC3 punctate by confocal fluorescence microscopy analysis; format: functional, cell-based; conditions: dose 0.01-0.1 µM
A549 [2] = assay: Induction of DNA damage in human A549 cells measured after 36 hrs by comet assay; format: functional, cell-based; conditions: dose 0.04-0.1 µM
A549 [3] = assay: Induction of DNA damage in human A549 cells assessed as gammaH2AX accumulation at 0.04 uM by Western blot analysis; format: functional, cell-based
A549 [4] = assay: Inhibition of survivin protein expression in human A549 cells by Western blot analysis; format: functional, cell-based; conditions: dose 0.004 µM
A549 [5] = assay: Induction of oxidative stress in human A549 cells assessed as upregulation of ROS level by DCFH-DA staining based analysis; format: functional, cell-based; conditions: dose 0.04-0.1 µM
A549 [6] = assay: Induction of apoptosis in human A549 cells assessed as upregulation of bax level measured after 48 hrs by Western blot analysis; format: functional, cell-based; conditions: dose 0.01-0.1 µM
A549 [7] = assay: Induction of apoptosis in human A549 cells assessed as increase in caspase-3 cleavage at low concentration measured after 48 hrs by Western blot analysis; format: functional, cell-based
A549 [8] = assay: Induction of DNA damage in human A549 cells assessed as increase in DNA percentage in tail at low concentration measured after 36 hrs by comet assay; format: functional, cell-based
A549 [9] = assay: Antitumor activity against human A549 cells xenografted in BALB/c nude mouse assessed as inhibition of tumor growth at 2 mg/kg, sc administered every 2 days for 14 days; format: functional, organism-based; conditions: time 14.0 day
A549 [10] = assay: Induction of apoptosis in survivin silenced human A549 cells assessed as decrease in apoptotic rate at 0.04 uM measured after 48 hrs by AnnexinV-FITC/PI staining based flow cytometry; format: functional, cell-based
A549 [11] = assay: Antitumor activity against human A549 cells xenografted in BALB/c nude mouse assessed as decrease in tumor cell proliferation at 2 to 4 mg/kg measured after 14 days by Ki67 staining based analysis; format: functional, organism-based; conditions: dose 2-4 mg/kg, time 14.0 day
A549 [12] = assay: Antitumor activity against human A549 cells xenografted in BALB/c nude mouse assessed as increase in apoptosis at 2 mg/kg measured after 14 days by tunel staining based analysis; format: functional, organism-based; conditions: time 14.0 day
A549 [13] = assay: Antitumor activity against human A549 cells xenografted in BALB/c nude mouse assessed as increase in apoptosis at 2 to 4 mg/kg measured after 14 days by tunel staining based analysis; format: functional, organism-based; conditions: dose 2-4 mg/kg, time 14.0 day
A549 [14] = assay: Induction of apoptosis in human A549 cells assessed as inhibition of Bcl-2 level measured after 48 hrs by Western blot analysis; format: functional, cell-based; conditions: dose 0.01-0.1 µM
A549 [15] = assay: Inhibition of colony formation in human A549 cells assessed as suppression of colony formation at 1 nM replaced with fresh medium for every 72 hrs and measured for 15 days by crystal violet staining based assay; format: functional, cell-based; conditions: time 15.0 day
A549 [16] = assay: Inhibition of survivin mRNA expression in human A549 cells by Q-PCR analysis; format: functional, cell-based; conditions: dose 0.01-0.1 µM
A549 [17] = assay: Antitumor activity against human A549 cells xenografted in BALB/c nude mouse assessed as appearance of tumor necrosis at 4 mg/kg measured after 14 days by H and E staining based analysis; format: functional, organism-based; conditions: time 14.0 day
A549 [18] = assay: Induction of autophagy in human A549 cells assessed as increase in LC3II amount by Western blot analysis; format: functional, cell-based; conditions: dose 0.04-0.1 µM
A549 [19] = assay: Antitumor activity against human A549 cells xenografted in BALB/c nude mouse assessed as appearance of various size of tumor necrosis at 2 mg/kg measured after 14 days by H and E staining based analysis; format: functional, organism-based; conditions: time 14.0 day
A549 [20] = assay: Antitumor activity against human A549 cells xenografted in BALB/c nude mouse assessed as decrease in tumor cell proliferation at 2 to 4 mg/kg measured after 14 days by PCNA staining based analysis; format: functional, organism-based; conditions: dose 2-4 mg/kg, time 14.0 day
[21] = target: Baculoviral IAP repeat-containing protein 5 (Homo sapiens) (UniProt O15392); assay: Inhibition of Survivin (unknown origin) expressed in HEK293T cells in presence of ILF3/NF110 by Dual luciferase reporter assay; format: cell-based; conditions: dose <= 2000.0 nM
A549 [22] = assay: Induction of apoptosis in human A549 cells assessed as early apoptotic cells at 0.25 uM measured after 48 hrs by annexin V and PI staining based flow cytometry analysis (reference value: 0.71%); format: functional
A549 [23] = assay: Induction of apoptosis in human A549 cells assessed as early apoptotic cells at 0.04 uM measured after 48 hrs by annexin V and PI staining based flow cytometry analysis (reference value: 0.71%); format: functional
TE-1 [24] = system: TE-1
Description: (§1) Antiproliferative activity against human TE-1 cells assessed as inhibition of cell growth measured after 48 hrs by MTT assay

5637 [25] = system: 5637
Description: (§2) Antiproliferative activity against human 5637 cells assessed as inhibition of cell growth measured after 48 hrs by MTT assay

A549 [26] = assay: Induction of apoptosis in human A549 cells assessed as late apoptotic cells at 0.1 uM measured after 48 hrs by annexin V and PI staining based flow cytometry analysis (reference value: 4.70%); format: functional
A549 [27] = assay: Induction of apoptosis in human A549 cells assessed as viable cells at 0.1 uM measured after 48 hrs by annexin V and PI staining based flow cytometry analysis (reference value: 93.3%); format: functional
NCI-H1299 = assay: Antiproliferative activity against human NCI-H1299 cells assessed as inhibition of cell growth measured after 48 hrs by MTT assay; format: functional, cell-based; conditions: Homo sapiens, NCI-H1299, 48 h
A549 [28] = assay: Induction of apoptosis in human A549 cells assessed as late apoptotic cells at 0.04 uM measured after 48 hrs by annexin V and PI staining based flow cytometry analysis (reference value: 4.70%); format: functional
HeLa = assay: Antiproliferative activity against human HeLa cells assessed as inhibition of cell growth measured after 48 hrs by MTT assay; format: functional, cell-based; conditions: Homo sapiens, HeLa, 48 h
MCF7 = assay: Antiproliferative activity against human MCF7 cells assessed as inhibition of cell growth measured after 48 hrs by MTT assay; format: functional, cell-based; conditions: MCF7, 48 h
NCI-H460 = assay: Antiproliferative activity against human NCI-H460 cells assessed as inhibition of cell growth measured after 48 hrs by MTT assay; format: functional, cell-based; conditions: Homo sapiens, NCI-H460, 48 h
[29] = Antiproliferative activity against mouse L929 cells assessed as inhibition of cell growth measured after 48 hrs by MTT assay; format: toxicity, cell-based; conditions: mouse, L929 cells
A549 [30] = assay: Induction of apoptosis in human A549 cells assessed as necrotic cells at 0.25 uM measured after 48 hrs by annexin V and PI staining based flow cytometry analysis (reference value: 1.47%); format: functional
[31] = Antiproliferative activity against mouse NIH3T3 cells assessed as inhibition of cell growth measured after 48 hrs by MTT assay; format: toxicity, cell-based; conditions: mouse, NIH3T3 cells
A549 [32] = assay: Induction of apoptosis in human A549 cells assessed as late apoptotic cells at 0.25 uM measured after 48 hrs by annexin V and PI staining based flow cytometry analysis (reference value: 4.70%); format: functional
PANC-1 = assay: Antiproliferative activity against human PANC-1 cells assessed as inhibition of cell growth measured after 48 hrs by MTT assay; format: functional, cell-based; conditions: Homo sapiens, PANC-1, 48 h
BXPC-3 = assay: Antiproliferative activity against human BXPC-3 cells assessed as inhibition of cell growth measured after 48 hrs by MTT assay; format: functional, cell-based; conditions: Homo sapiens, BXPC-3, 48 h
A549 [33] = assay: Induction of apoptosis in human A549 cells assessed as necrotic cells at 0.1 uM measured after 48 hrs by annexin V and PI staining based flow cytometry analysis (reference value: 1.47%); format: functional
A549 [34] = assay: Induction of apoptosis in human A549 cells assessed as necrotic cells at 0.04 uM measured after 48 hrs by annexin V and PI staining based flow cytometry analysis (reference value: 1.47%); format: functional
HepG2 = assay: Antiproliferative activity against human HepG2 cells assessed as inhibition of cell growth measured after 48 hrs by MTT assay; format: functional, cell-based; conditions: Homo sapiens, HepG2, 48 h
A549 [35] = assay: Induction of apoptosis in human A549 cells assessed as early apoptotic cells at 0.1 uM measured after 48 hrs by annexin V and PI staining based flow cytometry analysis (reference value: 0.71%); format: functional
A549 [36] = assay: Induction of apoptosis in human A549 cells assessed as viable cells at 0.25 uM measured after 48 hrs by annexin V and PI staining based flow cytometry analysis (reference value: 93.3%); format: functional
[37] = Antiproliferative activity against human MRC5 cells assessed as inhibition of cell growth measured after 48 hrs by MTT assay; format: toxicity, cell-based; conditions: human, MRC5 cells
143B = assay: Antiproliferative activity against human 143B cells assessed as inhibition of cell growth measured after 48 hrs by MTT assay; format: functional, cell-based; conditions: Homo sapiens, 143B, 48 h
[38] = Antiproliferative activity against human HUVEC cells assessed as inhibition of cell growth measured after 48 hrs by MTT assay; format: toxicity, cell-based; conditions: human, HUVEC cells
A549 [39] = assay: cells; conditions: Homo sapiens, A549, 48 h
Description: Antiproliferative activity against human A549 cells assessed as inhibition of cell growth measured after 48 hrs by MTT assay

ASPC1 = assay: Antiproliferative activity against human ASPC1 cells assessed as inhibition of cell growth measured after 48 hrs by MTT assay; format: functional, cell-based
A549 [40] = assay: Induction of apoptosis in human A549 cells assessed as viable cells at 0.04 uM measured after 48 hrs by annexin V and PI staining based flow cytometry analysis (reference value: 93.3%); format: functional
5637 [41] = assay: cells; conditions: Homo sapiens, 5637, 48 h
Description: as §2

TE-1 [42] = assay: cells; conditions: Homo sapiens, TE-1, 48 h
Description: as §1

A549 [43] = assay: Antitumor activity against human A549 cells xenografted in BALB/c nude mouse assessed as decrease in tumor cell proliferation at 2 mg/kg measured after 14 days by Ki67 staining based analysis; format: functional, organism-based; conditions: time 14.0 day
A549 [44] = assay: Antitumor activity against human A549 cells xenografted in BALB/c nude mouse assessed as decrease in tumor cell proliferation at 2 mg/kg measured after 14 days by PCNA staining based analysis; format: functional, organism-based; conditions: time 14.0 day
[45] = Homo sapiens, A549, 48 h, read-out: Activity

Sequence of Baculoviral IAP repeat-containing protein 5 (Homo sapiens) (O15392 whole entry): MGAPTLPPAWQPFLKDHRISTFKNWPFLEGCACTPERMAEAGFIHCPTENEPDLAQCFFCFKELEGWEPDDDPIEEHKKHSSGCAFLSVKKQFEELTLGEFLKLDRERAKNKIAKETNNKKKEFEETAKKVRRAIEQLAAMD

SMILES	Activity (A549 [9])	Activity (A549 [12])	inhibition (A549 [15])	Activity (A549 [19])	Activity (A549 [22]) [%]	Activity (A549 [23]) [%]	Activity (A549 [26]) [%]	IC50 (NCI-H1299) [µM]	Activity (A549 [28]) [%]	IC50 (HeLa) [µM]	IC50 (MCF7) [µM]	IC50 (NCI-H460) [µM]	Activity (A549 [30]) [%]	Activity (A549 [32]) [%]	IC50 (PANC-1) [µM]	IC50 (BXPC-3) [µM]	Activity (A549 [33]) [%]	Activity (A549 [34]) [%]	IC50 (HepG2) [µM]	Activity (A549 [35]) [%]	further results
Cn1c[n+](C)c2c1C(=O)c1cc3ccccc3cc1C2=O	Active	Active	Active	Active																	Activity (A549 [1]): Dose-Dependent Effect; Activity (A549 [2]): Dose-Dependent Effect; Activity (A549 [3]): Active; inhibition (A549 [4]): Active; Activity (A549 [5]): Active; Activity (A549 [6]): Dose-Dependent Effect; Activity (A549 [7]): Active; Activity (A549 [8]): Active; Activity (A549 [10]): Active; Activity (A549 [11]): Active; Activity (A549 [13]): Active; Activity (A549 [14]): Dose-Dependent Effect; inhibition (A549 [16]): Active; Activity (A549 [17]): Active; Activity (A549 [18]): Dose-Dependent Effect; Activity (A549 [20]): Active; inhibition [21]: Dose-Dependent Effect
Cn1c[n+](C)c2c1C(=O)c1cc3ccccc3cc1C2=O.[Br-]					0.22	1.6	79.7	0.54	58.5	1.86	0.06	0.16	7.92	89.2	0.09	0.11	11.5	13.9	0.36	0.55	IC50 (TE-1 [24]): 0.03 µM; IC50 5637 [25]: 0.11 µM; Activity (A549 [27]): 8.24%; IC50 at 48 h [29]: 13.6 µM; IC50 at 48 h [31]: 14.2 µM; Activity (A549 [36]): 2.43%; IC50 at 48 h [37]: 3.98 µM; IC50 (143B): 0.41 µM; IC50 at 48 h [38]: 10.5 µM; IC50 (A549 [39]): 0.01 µM; IC50 (ASPC1; aspc1): 0.11 µM; Activity (A549 [40]): 25.3%
COCC[n+]1c2c(n(Cc3cnccn3)c1C)C(=O)c1ccccc1C2=O.[Br-] [SEPANTRONIUM BROMIDE]	inactive	Active	Active	Active	0.57	1.65	76.4	0.12	51.1	1.8	0.01	0.1	7.79	86.9	0.01	0.09	11.7	24.2	3.72	1.54	IC50 5637 [41]: 0.11 µM; IC50 (TE-1 [42]): 0.008 µM; viability at 0.1 µM (A549 [27]; [45]): 11.3%; Activity (A549 [43]): Active; Activity (A549 [44]): Active; viability at 0.25 µM (A549 [36]; [45]): 4.72%; IC50 (143B): 0.32 µM; IC50 (A549 [39]): 0.01 µM; IC50 (ASPC1; Homo sapiens, ASPC1, 48 h): 0.51 µM; viability at 0.04 µM (A549 [40]; [45]): 22.2%
